In brackets after ≈: the same amount, converted by molar mass. Entries after “also recorded” stand apart in the source; their conditions may differ. Where a SMILES comes first, the peptide text is derived from it.
What was measured:
YFP-A. fumigatus = assay: Ex vivo porcine cornea infected with YFP-A. fumigatus, topical treatment, confocal live-cell imaging; parameters: species or system Aspergillus fumigatus
Description: FIG. 6 contains images of ex vivo corneas infected with YFP-A. fumigatus treated with either PBS or MFIGAF001. All cornea were treated with one drop of reagent every 2 hours for the first 8 hours, then one drop every 8 hours for the remaining 16 hours. Treatment was continued for 72 hours with this treatment regimen. MFIGAF001 was used at 100 mg/L.
FIG. 7 contains images of an ex vivo cornea infected with A. fumigatus treated with MFIGAF001, using the fluorescent confocal live-cell imaging approach with a yellow fluorescent protein (YFP). The yellow fluorescent signal (yellow in the original graphs, white reproduced here) indicates the live fungal burden that penetrated into the corneal tissue. All cornea were treated with one drop of reagent every 2 hours for the first 8 hours, then one drop every 8 hours for the remaining 16 hours. Treatment was continued for 72 hours with this treatment regimen. MFIGAF001 was used at 100 mg/L.
FIG. 8 contains images of an ex vivo cornea infected with A. fumigatus treated with either Natamycin or MFIGAF001, using the fluorescent confocal live-cell imaging approach with a YFP. All cornea were treated with one drop of reagent every 2 hours for the first 8 hours, then one drop every 8 hours for the remaining 16 hours. […]
YFP-A. fumigatus spores were harvested from 3 days old cultures grown on SAB agar at 37° C. in PBST and quantified using a haemocytometer. […]

Aspergillus fumigatus = type: cell-based
Description: The assays were performed using Nunc 262162 U96 polystyrene round bottomed clear plates (www.nuncbrand.com).
When testing the peptides against A. fumigatus, peptides at different concentrations were mixed with A. fumigatus conidia to reach a final volume of 100 μL per well. The final conidial concentration was 5×10^5 cells/mL in 10% Vogel's medium. After 24 h of incubation at 37° C. in 96 well plates, fungal growth with the different peptide concentrations was determined by measurement of the optical density at 610 nm in a TriStar LB 941 Multimode Microplate Reader. The IC50 values were determined using four parameter logistic regression formula provided by Sigma Plot 10.0. Values are represented as means±SEM from two independent experiments (n=3).
The IC50 of the fluorescently labelled peptides cannot be accurately determined using the optical density method described in the last section. This is because the fluorophore structures absorbed light at 610 nm which was the wavelength used for the optical density measurements. In order to overcome this, the BacTiter-Glo™ Microbial Cell Viability Assay kit purchased from Promega was used. The BacTiter-Glo™ Reagent relies on the properties of a proprietary thermostable luciferase (Ultra-Glo™ Recombinant Luciferase) and a proprietary formulation for extracting ATP from fungal cells which will generates a ‘glow-type’ luminescent signal. This is produced by the luciferase reaction shown in Scheme 1, which has a signal half-life of over 30 min depending on the experimental conditions. The luminescent signal is proportional to the amount of ATP present, which is directly proportional to the number of living cells in culture.
The IC50 assays for all fluorescently labelled peptides were performed using Greiner CELLSTAR white polystyrene wells flat bottomed 96 well plates. The incubation conditions remained the same for the optical density measurement described in the previous section. Once the incubation procedure was finished, the plate was equilibrated to room temperature. A mixture of BacTiter-Glo™ buffer and substrate was then added to the plate (100 μL per well). The plate was shaken for 5 min and read using the Tristar […] luminometer. Data analysis was performed using Sigma Plot 10.0. All values shown are presented as means±SEM from two independent experiments (n=3).

C. auris = type: cell-based
Description: (§1) Candida strains used were grown on SAB agar at 37° C. for 3 days, and the Cryptococcus strain was grown on SAB agar at 37° C. for 6 days. Cells were harvest using sterile inoculation loop by taking a single colony and resuspending in phosphate-buffered saline supplemented with 0.1% tween-20 (PBST). The concentration of cells was then quantified with a haemocytometer. For the determination of the minimum inhibitory concentration, cell density was adjusted to 10^6 cells/mL with 20% liquid Vogel's medium.

[1] = tested on: C. inconspicua (ATCC 16783); type: cell-based
Description: as §1

C. glabrata (NCPF 3309) = type: cell-based
Description: as §1

C. albican = type: cell-based
Description: as §1

C. krusei (ATCC 6258) = type: cell-based
Description: as §1

Structure (SMILES): N=C(N)NCCC[C@@H]1NC(=O)CNC(=O)[C@H](Cc2c[nH]c3ccccc23)NC(=O)[C@H](Cc2ccccc2)NC(=O)[C@H](Cc2c[nH]c3ccccc23)NC(=O)[C@@H](Cc2ccccc2)NC(=O)[C@H](CCCCN)NC(=O)[C@H](CCCCN)NC1=O [MFIGAF001, Cyclo(Arg-Lys-Lys-phe-Trp-Phe-Trp-Gly)] (HELM PEPTIDE1{F.W.G.R.K.K.[dF].W}$PEPTIDE1,PEPTIDE1,1:R1-8:R2$$$V2.0)
- Live fungal burden in ex vivo cornea (YFP-A. fumigatus; 100 mg/L topical drops, 72 h of treatment, vs saline): reduced fungal burden; also recorded: elimination of live fungal burden
- Efficacy ex vivo compared with Natamycin (YFP-A. fumigatus; MFIGAF001 100 mg/L, Natamycin 120 mg/L, 72 hours): comparable efficacy
- IC50 Aspergillus fumigatus (Aspergillus fumigatus; 24 h): 1.4 µg/mL (≈ 1.23 µM)
- IC99 Aspergillus fumigatus (Aspergillus fumigatus; Conidia (10% Vogel's), 37° C., 24 h): 5.7 mg/L
- IC50 value against major pathogenic fungi (in words) (Aspergillus fumigatus; various fungi, including Aspergillus fumigatus and Fusarium oxysporum): sub-micromolar
- MIC (C. auris): 2 µM (≈ 2.27 µg/mL)
- MIC [1]: 2 µM (≈ 2.27 µg/mL)
- MIC (C. glabrata (NCPF 3309)): 3.9 µM (≈ 4.43 µg/mL)
- MIC (C. albican): 2 µM (≈ 2.27 µg/mL)
- MIC (C. krusei (ATCC 6258)): 3.9 µM (≈ 4.43 µg/mL)

— patent US20240299591A1, “Antimicrobial Peptides and Their Use” (priority 2021, published 2024)
